# In patent publication US20220194938A1, “NOVEL COMPOUNDS AND PHARMACEUTICAL COMPOSITIONS THEREOF FOR THE TREATMENT OF INFLAMMATORY DISORDERS” (GALAPAGOS NV, priority 2019, published 2022):
# Legend:
# [1] = target: T1, human IRAK-4 (Homo sapiens, UniProt Q9NWZ3); experiment: Phosphorylation IC50 determination for human IRAK-4 (ADP-Glo kinase assay); conditions: human IRAK-4, RIP140 substrate, Km ATP; read-out: IRAK4 ADPglo biochemical assay IC50
# T1 construct: purchased Carna Biosciences 09 145
# T1 sequence (Q9NWZ3 1-460): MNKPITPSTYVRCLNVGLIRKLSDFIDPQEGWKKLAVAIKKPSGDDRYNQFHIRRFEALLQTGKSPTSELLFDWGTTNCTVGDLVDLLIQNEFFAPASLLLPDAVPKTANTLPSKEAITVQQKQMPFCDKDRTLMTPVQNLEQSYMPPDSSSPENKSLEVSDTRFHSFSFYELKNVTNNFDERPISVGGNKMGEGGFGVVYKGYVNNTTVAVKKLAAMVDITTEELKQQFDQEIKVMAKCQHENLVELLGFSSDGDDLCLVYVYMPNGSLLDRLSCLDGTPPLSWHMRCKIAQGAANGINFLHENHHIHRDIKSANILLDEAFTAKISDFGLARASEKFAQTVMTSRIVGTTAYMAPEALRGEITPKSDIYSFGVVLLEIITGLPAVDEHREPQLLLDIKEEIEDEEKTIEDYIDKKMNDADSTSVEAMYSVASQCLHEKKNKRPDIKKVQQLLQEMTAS
# Experimental: 3.1. Phosphorylation IC50 Determination for Human IRAK-4
# The phosphorylation of the substrate RIP140 (SEQ ID1) by IRAK4 at Km ATP was detected with the ADP-Glo Kinase Assay (Promega, Cat #V9103), a luminescent kinase assay which measures the ADP formed from a kinase reaction. (Zegzouti et al. 2009) In a second step the kinase reaction was terminated and all the remaining ATP was depleted. In a final step the ADP was converted into ATP and this newly synthesized ATP was measured by using a luciferase/luciferin reaction with a luminescent reader. The luminescent signal positively correlated with kinase activity, in particular kinase inhibition giving a decrease of the luminescent signal.
# For the semi-automated assay, the positive control (100% inhibition) was prepared by diluting 10 mM staurosporine stock mixture (20 μL) in water (3.8 mL) and DMSO (180 μL), thus resulting in a […] staurosporine solution at 1% DMSO (final concentration after further dilution in the kinase reaction).
# For the automated assay, no pre-dilution of the 10 mM staurosporine stock was made. 10 mM staurosporine was spotted directly in the assay plate using acoustic dispensing and complemented with DMSO to result in a similar final concentration as mentioned above.
# For the semi-automated assay, the negative control (0% inhibition) was prepared by mixing water (3.8 mL) and DMSO (200 μL) resulting in a final concentration of 1% DMSO after further dilution in the kinase reaction. For the automated assay no pre-dilution of DMSO was done. 100% DMSO was spotted directly on the assay plate.
# The assay buffer solution was prepared at a concentration corresponding to 5 fold the final (most diluted) assay concentration by mixing a solution of 125 mM TRIS pH 7.5+0.05% Triton X-100+2.5 mM EGTA (5.27 mL) with 1M mgCl2 (72 μL), 1M DTT (57.6 μL), and 200 mM MnCl2 (360 μL).
# For example, for the semi-automated method, the enzyme-substrate mixture was prepared by mixing water (3999 μL), assay buffer solution (1380 μL), 1 mM RIP140 (138 μL—SEQ ID1), and 200 ng/mL IRAK 4 (3.45 μL Carna Biosciences, 09 145).
# For semi-automated method, the ATP mixture was prepared at a concentration corresponding to 2.5 fold the final (most diluted) assay concentration of the semi-automated method and 1.5 fold the final (most diluted) assay concentration of the automated method. For example, for the semi-automated method, the ATP mixture was prepared by mixing water (4126 μL), assay buffer solution (1380 μL), and 10 mM ATP (13.80 μL).
# The assay was performed either in a semi-automated or fully automated manner. The assay volume and the incubation time of the ADP detection were different accordingly the method used.
# 3.1.3.1. Semi-Automated Assay
# The compounds were prepared as a serial dilution of 10 point dose responses with 1/5 dilution steps in 100% DMSO starting from 2 mM highest concentration, diluted 1/20 in water. 1 μL was transferred dry to the assay plates.
# On each assay plate 32 wells of each control (positive & negative) were added, followed by 2 μL enzyme-substrate mixture.
# The reaction was started by adding 2 μL diluted ATP (final concentration Km ATP) on the assay plates. Plates were centrifuged for a few seconds at 1000 rpm followed by an incubation at r.t. for 120 min.
# The reactions were stopped and the unconsumed ATP was depleted by adding 5 μL ADP-glo Reagent (Promega, Cat #V9103) to the reaction. The plates were quickly centrifuged at 1000 rpm and incubated at r.t. for 40 min corresponding to full ATP depletion.
# The ADP was converted back to ATP and luciferase and luciferin were introduced to detect ATP by adding 10 μL kinase detection reagent (Promega, Cat #V9103) to the reaction. The plates were centrifuged for a few seconds at 1000 rpm and incubated at r.t. for a further 30 min.
# Luminescent read out was performed on an Envision luminescent reader (Perkin Elmer). […]
# [2] = tested on: pooled cryopreserved hepatocytes; experiment: Metabolic stability in hepatocytes (mouse); format: in vitro ADME; conditions: 1 μM test compound
# Experimental: (§1) 4.6. Metabolic Stability in Hepatocytes
# (§2) The aim of this assay is to determine the metabolic stability of the compound in hepatocytes (cryopreserved) of different species. Low hepatocyte stability may result in the formation of unwanted metabolites, high clearance, and therefore is not desirable.
# (§3) The decrease in parent was assessed by measuring the percentage remaining by LC-MS/MS analysis.
# (§4) A 10 mM stock solution of test compound in DMSO was first diluted in DMSO to 3 mM, and then in modified Krebs-Henseleit buffer (Sigma, K3753) to 5 μM. This compound dilution was added to a suspension of pooled cryopreserved hepatocytes (BioreclamationIVT) at 37° C. under gentle shaking.
# (§5) Final reaction conditions were: 1 μM of test compound, 0.03% DMSO, 0.5 million viable hepatocytes/mL, and 75 μL incubation volume.
# (§6) Testosterone (1 μM) and 7-hydroxycoumarin (1 μM) were used, respectively as phase I and phase II metabolic reaction controls.
# (§7) After 0, 10, 20, 45, 90, 120 and 180 min of incubation, the reaction was terminated with 225 μL of MeCN:MeOH (2:1) containing 100 ng/mL of diclofenac as analytical internal standard. Samples were mixed, centrifuged and the supernatant analyzed by LC-MS/MS.
# (§8) The instrument responses (ratios of test compound and internal standard peak areas) were referenced to the zero time point samples (considered as 100%) in order to determine the percentage of compound remaining.
# (§9) Plots of percentage compound remaining are used to determine the intrinsic clearance in the hepatocyte incubations using the following equations:
# (§10) Scaled Clint[L/h/kg]=Clint[μL/min/10^6 cells]*#(10^6) cells/g liver*60*(1/10^6) Scaled Clint unbound [L/h/kg]=Clint [L/h/kg]/Fu,inc where: fu,inc equals hepatocyte binding, derived from microsomal binding (fu,mic) by following equation: […]
# [3] = tested on: pooled cryopreserved hepatocytes; experiment: Metabolic stability in hepatocytes (human); format: in vitro ADME; conditions: 1 μM test compound
# Experimental: as §1, §2, §3, §4, §5, §6, §7, §8, §9, §10
Structure (SMILES),IC50 [1] [nM],Mouse (Perc. remaining at 90 min) [2] [%],Human (Perc. remaining at 90 min) [3] [%]
"COc1cc2nc(CCC(C)(C)O)cn2cc1NC(=O)c1cccn(C(C)C)c1=O [Compound 22, N-[2-(3-hydroxy-3-methyl-butyl)-7-methoxy-imidazo[1,2-a]pyridin-6-yl]-1-isopropyl-2-oxo-pyridine-3-carboxamide]",10 to 50,74.1,99.75
"CN(C)C(=O)c1cc2nc(CCC(C)(C)O)cn2cc1NC(=O)c1cccc(C(F)(F)F)n1 [Compound 27, 2-(3-hydroxy-3-methyl-butyl)-N,N-dimethyl-6-[[6-(trifluoromethyl)pyridine-2-carbonyl]amino]imidazo[1,2-a]pyridine-7-carboxamide]",10 to 50,108.1,95.6
"CC(C)(O)CCc1cn2cc(NC(=O)c3cccc(C(F)(F)F)n3)c(C(=O)N3CCC3)cc2n1 [Compound 28, N-[7-(azetidine-1-carbonyl)-2-(3-hydroxy-3-methyl-butyl)imidazo[1,2-a]pyridin-6-yl]-6-(trifluoromethyl)pyridine-2-carboxamide]",10 to 50,96.25,93.5
"CCOc1cc2nc(CCC(C)(C)O)cn2cc1NC(=O)c1cccn(C)c1=O [Compound 29, N-[7-ethoxy-2-(3-hydroxy-3-methyl-butyl)imidazo[1,2-a]pyridin-6-yl]-1-methyl-2-oxo-pyridine-3-carboxamide]",10 to 50,95.2,98.85
"COc1cc2nc(CCC(C)(C)O)cn2cc1NC(=O)c1cccc(Cl)n1 [Compound 34, 6-chloro-N-[2-(3-hydroxy-3-methylbutyl)-7-methoxyimidazo[1,2-a]pyridin-6-yl]pyridine-2-carboxamide]",5 to 10,6.59,49.8
"CC(C)(O)CCc1cn2cc(NC(=O)c3cccc(C(F)(F)F)n3)c(C(=O)NCCO)cc2n1 [Compound 40, 2-(3-hydroxy-3-methylbutyl)-N-(2-hydroxyethyl)-6-(6-(trifluoromethyl)picolinamido)imidazo[1,2-a]pyridine-7-carboxamide]",0.1 to 5,94.55,94.65
